# US8536168B2 (Novartis AG, priority 2007, dated 2013)
# Like-named read-outs stand apart in the source and are kept apart here.
# How the values were obtained:
# Gli-luciferase activity = test: Reporter gene assay (RGA) in TMHh12 cells, antagonism of Gli-luciferase activity in the presence of a Smo agonist; type: cell-based
# Protocol: Activity of the compounds was evaluated using a reporter gene assay (RGA) in TMHh12 cells.
# [1] = target: mouse Smoothened receptor (Mus musculus, UniProt P56726); test: Smo binding assay, displacement of radio-labeled smoothened agonist, filter binding format (mouse); details: displacement of small molecule agonist of Smoothened, read-out: Mouse Smo bdg., IC50
# mouse Smoothened receptor, sequence (P56726 33-793): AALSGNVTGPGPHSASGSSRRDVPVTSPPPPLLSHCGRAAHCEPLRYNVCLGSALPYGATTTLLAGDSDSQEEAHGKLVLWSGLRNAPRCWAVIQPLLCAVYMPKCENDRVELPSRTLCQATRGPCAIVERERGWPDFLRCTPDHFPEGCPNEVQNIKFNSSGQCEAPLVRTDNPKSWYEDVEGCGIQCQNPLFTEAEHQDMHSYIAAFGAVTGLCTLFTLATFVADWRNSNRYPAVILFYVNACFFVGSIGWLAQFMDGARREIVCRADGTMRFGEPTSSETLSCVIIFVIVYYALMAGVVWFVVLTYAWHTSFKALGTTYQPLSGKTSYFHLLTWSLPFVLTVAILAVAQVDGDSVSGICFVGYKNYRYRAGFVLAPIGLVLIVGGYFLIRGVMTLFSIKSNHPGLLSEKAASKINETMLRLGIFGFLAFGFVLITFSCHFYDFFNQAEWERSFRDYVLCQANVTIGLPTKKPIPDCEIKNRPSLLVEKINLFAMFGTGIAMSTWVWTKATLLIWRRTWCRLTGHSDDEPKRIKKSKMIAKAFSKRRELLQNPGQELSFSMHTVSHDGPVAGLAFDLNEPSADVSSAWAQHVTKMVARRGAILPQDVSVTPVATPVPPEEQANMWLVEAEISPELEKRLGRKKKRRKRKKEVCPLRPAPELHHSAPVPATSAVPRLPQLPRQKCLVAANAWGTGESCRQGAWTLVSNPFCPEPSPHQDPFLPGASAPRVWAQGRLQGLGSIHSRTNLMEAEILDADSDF
# Description: A Smo binding assay was developed using radio-labeled smoothened agonist for compound competition.
# [2] = target: human Smoothened receptor (Homo sapiens, UniProt Q99835); test: Smo binding assay, displacement of radio-labeled smoothened agonist, filter binding format (human); details: displacement of small molecule agonist of Smoothened, read-out: Human Smo bdg., IC50
# human Smoothened receptor, sequence (Q99835 28-787): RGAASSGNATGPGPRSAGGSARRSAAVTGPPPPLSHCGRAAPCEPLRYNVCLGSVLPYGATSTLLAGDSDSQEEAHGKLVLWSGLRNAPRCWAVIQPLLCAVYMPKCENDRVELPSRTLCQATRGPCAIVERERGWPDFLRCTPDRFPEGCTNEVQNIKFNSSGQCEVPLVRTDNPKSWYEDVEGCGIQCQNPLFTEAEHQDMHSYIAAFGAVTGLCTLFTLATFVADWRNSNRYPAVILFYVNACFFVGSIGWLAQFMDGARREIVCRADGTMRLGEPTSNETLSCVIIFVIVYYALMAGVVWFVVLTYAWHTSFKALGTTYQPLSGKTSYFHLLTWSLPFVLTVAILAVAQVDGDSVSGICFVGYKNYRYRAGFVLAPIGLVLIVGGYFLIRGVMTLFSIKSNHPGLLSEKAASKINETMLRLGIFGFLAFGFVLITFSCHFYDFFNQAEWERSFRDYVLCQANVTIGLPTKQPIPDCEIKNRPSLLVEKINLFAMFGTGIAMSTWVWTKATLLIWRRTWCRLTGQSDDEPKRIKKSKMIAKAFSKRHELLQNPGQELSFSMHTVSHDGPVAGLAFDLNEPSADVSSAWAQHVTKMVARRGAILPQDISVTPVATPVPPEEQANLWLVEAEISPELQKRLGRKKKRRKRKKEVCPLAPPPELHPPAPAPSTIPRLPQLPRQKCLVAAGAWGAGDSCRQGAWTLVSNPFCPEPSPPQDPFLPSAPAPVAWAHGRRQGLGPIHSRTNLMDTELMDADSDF
# Description: A Smo binding assay was developed using radio-labeled smoothened agonist for compound competition. Table 9 lists the IC50 for displacement of a small molecule agonist of Smoothened determined in a filter binding format for the mouse and human Smoothened receptor.
# [3] = 25 nM small molecule Smo agonist, read-out: RGA (25 nM Smo agonist) IC50
# [4] = read-out: RGA (1 nM Smo agonist) IC50, 1 nM small molecule Smo agonist
Compound,IC50 (Gli-luciferase activity; [3]) [µM],IC50 (Gli-luciferase activity; [4]) [µM],IC50 [1] [µM],IC50 [2] [µM]
CC(C)(C)OC(=O)NC1CN(C(=O)c2ccc(N3CCN(c4nnc(Cc5ccccc5)c5ccccc45)CC3)nc2)C1 [Example 54v],1 to 10,0.1 to 1,0.1 to 1,0.1 to 1
NC1CN(C(=O)c2ccc(N3CCN(c4nnc(Cc5ccccc5)c5ccccc45)CC3)nc2)C1 [Example 54w],1 to 10,0.1 to 1,1 to 10,10 to 40
O=C(NC1CN(C(=O)OCc2ccccc2)C1)c1ccc(N2CCN(c3nnc(Cc4ccccc4)c4ccccc34)CC2)nc1 [Example 54x],0.1 to 1,0.1 to 1,0.1 to 1,< 0.1
O=C(NC1CNC1)c1ccc(N2CCN(c3nnc(Cc4ccccc4)c4ccccc34)CC2)nc1 [Example 54y],1 to 10,1 to 10,1 to 10,1 to 10
O=C(c1ccc(N2CCN(c3nnc(Cc4ccccc4)c4ccccc34)CC2)nc1)N1CC(O)C1 [Example 54z],0.1 to 1,< 0.1,0.1 to 1,0.1 to 1
"FC(F)(F)c1ccc(N2CCN(c3nnc(Cc4ccccc4)c4ccccc34)CC2)cc1 [Example 55, 1-Benzyl-4-[4-(4-trifluoromethyl-phenyl)-piperazin-1-yl]-phthalazine]",1 to 10,0.1 to 1,0.1 to 1,0.1 to 1
"N#Cc1ccc(N2CCN(c3nnc(Cc4cccc(C(F)(F)F)c4)c4ccccc34)CC2)nc1 [Example 56, 6-{4-[4-(3-Trifluoromethyl-benzyl)-phthalazin-1-yl]-piperazin-1-yl}-nicotinonitrile]",1 to 10,< 0.1,< 0.1,0.1 to 1
N#Cc1ccc(Cc2nnc(N3CCN(c4ccc(C#N)cn4)CC3)c3ccccc23)cc1 [Example 57],0.1 to 1,< 0.1,< 0.1,< 0.1
COc1ccc(Cc2nnc(N3CCN(c4ccc(C#N)cn4)CC3)c3ccccc23)cc1OC [Example 58],–,1 to 10,1 to 10,1 to 10
N#Cc1ccc(N2CCN(c3nnc(Cc4ccc(Cl)cc4)c4ccccc34)CC2)nc1 [Example 59],0.1 to 1,< 0.1,< 0.1,< 0.1
N#Cc1ccc(N2CCN(c3nnc(Cc4cccc(Cl)c4)c4ccccc34)CC2)nc1 [Example 60],0.1 to 1,< 0.1,< 0.1,0.1 to 1
N#Cc1ccc(N2CCN(c3nnc(CCc4ccccc4)c4ccccc34)CC2)nc1 [Example 61],1 to 10,0.1 to 1,< 0.1,0.1 to 1
N#Cc1ccc(N2CCN(c3nnc(Cc4ccc5ccccc5c4)c4ccccc34)CC2)nc1 [Example 62],1 to 10,< 0.1,< 0.1,< 0.1
N#Cc1ccc(N2CCN(c3nnc(Cc4ccc(C(F)(F)F)cc4)c4ccccc34)CC2)nc1 [Example 63],1 to 10,0.1 to 1,0.1 to 1,0.1 to 1
COc1ccc(Cc2nnc(N3CCN(c4ccc(C#N)cn4)CC3)c3ccccc23)cc1 [Example 64],1 to 10,< 0.1,0.1 to 1,0.1 to 1
N#Cc1ccc(N2CCN(c3nnc(Cc4cccc(C#N)c4)c4ccccc34)CC2)nc1 [Example 65],1 to 10,0.1 to 1,0.1 to 1,0.1 to 1
N#Cc1ccc(N2CCN(c3nnc(Cc4ccc(Br)cc4)c4ccccc34)CC2)nc1 [Example 66],0.1 to 1,< 0.1,< 0.1,< 0.1
N#Cc1ccc(N2CCN(c3nnc(Cc4cccc(Br)c4)c4ccccc34)CC2)nc1 [Example 67],0.1 to 1,0.1 to 1,< 0.1,0.1 to 1
CC(c1ccccc1)c1nnc(N2CCN(c3ccc(C#N)cn3)CC2)c2ccccc12 (stereo not shown) [Example 68],1 to 10,0.1 to 1,1 to 10,1 to 10
Cc1cccc(Cc2nnc(N3CCN(c4ccc(C#N)cn4)CC3)c3ccccc23)c1 [Example 69],1 to 10,< 0.1,0.1 to 1,0.1 to 1
"CC(=O)NCc1ccc(N2CCN(c3nnc(Cc4ccccc4)c4ccccc34)CC2)nc1 [Example 70, N-{6-[4-(4-Benzyl-phthalazin-1-yl)-piperazin-1-yl]-pyridin-3-ylmethyl}-acetamide]",0.1 to 1,< 0.1,0.1 to 1,0.1 to 1
CCC(=O)NCc1ccc(N2CCN(c3nnc(Cc4ccccc4)c4ccccc34)CC2)cc1 [Example 78a],0.1 to 1,< 0.1,0.1 to 1,0.1 to 1

Compound,IC50 (Gli-luciferase activity; [3]) [µM],IC50 (Gli-luciferase activity; [4]) [µM],IC50 [1] [µM],IC50 [2] [µM]
COCC(=O)NCc1ccc(N2CCN(c3nnc(Cc4ccccc4)c4ccccc34)CC2)cc1 [Example 78b],0.1 to 1,< 0.1,0.1 to 1,0.1 to 1
CC(C)CC(=O)NCc1ccc(N2CCN(c3nnc(Cc4ccccc4)c4ccccc34)CC2)cc1 [Example 78c],< 0.1,< 0.1,< 0.1,< 0.1
"N#Cc1ccc(N2CCN(c3cnc(Cc4ccccc4)c4ccccc34)CC2)nc1 [Example 79, 6-[4-(1-Benzyl-isoquinolin-4-yl)-piperazin-1-yl]-nicotinonitrile]",0.1 to 1,0.1 to 1,0.1 to 1,1 to 10
N#Cc1ccc(N2CCN(c3cnc(Cc4cccc(Cl)c4)c4ccccc34)CC2)nc1 [Example 81],10 to 40,1 to 10,1 to 10,10 to 40
N#Cc1ccc(N2CCN(c3cnc(Cc4cccc(C(F)(F)F)c4)c4ccccc34)CC2)nc1 [Example 82],10 to 40,1 to 10,1 to 10,1 to 10
"N#Cc1ccc(N2CCN(c3ncc(Cc4ccccc4)c4ccccc34)CC2)nc1 [Example 83, 6-[4-(4-Benzyl-isoquinolin-1-yl)-piperazin-1-yl]-nicotinonitrile]",0.1 to 1,0.1 to 1,1 to 10,1 to 10
Cc1cc(Cc2ccc(F)cc2)nnc1N1CCN(c2ccc(C#N)cn2)CC1 [Example 84],1 to 10,< 0.1,0.1 to 1,0.1 to 1
Cc1cc(N2CCN(c3ccc(C#N)cn3)CC2)nnc1Cc1ccc(F)cc1 [Example 85],–,0.1 to 1,0.1 to 1,0.1 to 1
Cc1cc(Cc2ccccc2)nnc1N1CCN(c2ccc(C#N)cn2)CC1 [Example 86],1 to 10,0.1 to 1,1 to 10,1 to 10
Cc1cc(N2CCN(c3ccc(C#N)cn3)CC2)nnc1Cc1ccccc1 [Example 87],–,0.1 to 1,0.1 to 1,0.1 to 1
Cc1cc(Cc2ccccc2)nnc1N1CCN(c2ccc(C(F)(F)F)cn2)CC1 [Example 88],1 to 10,< 0.1,0.1 to 1,0.1 to 1
Cc1cc(N2CCN(c3ccc(C(F)(F)F)cn3)CC2)nnc1Cc1ccccc1 [Example 89],–,0.1 to 1,< 0.1,< 0.1
Cc1cc(Cc2ccc(F)cc2)nnc1N1CCN(c2ccc(C(F)(F)F)cn2)CC1 [Example 90],1 to 10,< 0.1,< 0.1,< 0.1
Cc1cc(Cc2ccc(Cl)cc2)nnc1N1CCN(c2ccc(C#N)cn2)CC1 [Example 92],1 to 10,0.1 to 1,0.1 to 1,0.1 to 1
N#Cc1ccc(N2CCN(c3nnc(Cc4ccc(F)cc4)c4c3CCCC4)CC2)nc1 [Example 93b],0.1 to 1,0.1 to 1,0.1 to 1,0.1 to 1
"N#Cc1ccc(N2CCN(c3nnc(Cc4ccc(F)cc4)c4c3CCC4)CC2)nc1 [Example 93c, 6-{4-[4-(4-Fluoro-benzyl)-6,7-dihydro-5H-cyclopenta[d]pyridazin-1-yl]-piperazin-1-yl}-nicotinonitrile]",0.1 to 1,< 0.1,< 0.1,< 0.1
"N#Cc1cccc(C(=O)N2CCC(c3cn(Cc4ccc(F)cc4)c4ccccc34)CC2)c1 [Example 94, 3-{4-[1-(4-Fluoro-benzyl)-1H-indol-3-yl]-piperidine-1-carbonyl}-benzonitrile]",1 to 10,0.1 to 1,0.1 to 1,0.1 to 1
"Fc1ccc(Cn2cc(C3CCN(c4ccc(C(F)(F)F)cn4)CC3)c3ccccc32)cc1 [Example 95, 4-[1-(4-Fluoro-benzyl)-1H-indol-3-yl)-5′-trifluoromethyl-3,4,5,6-tetrahydro-2H-[1,2]-bipyridinyl]",1 to 10,< 0.1,0.1 to 1,0.1 to 1
N#Cc1ccc(Cn2cc(C3CCN(c4ccc(C(F)(F)F)cn4)CC3)c3ccccc32)cc1 [Example 96],0.1 to 1,< 0.1,0.1 to 1,0.1 to 1
FC(F)(F)c1ccc(N2CCC(c3cn(Cc4ccccc4)c4ccccc34)CC2)nc1 [Example 97],1 to 10,< 0.1,0.1 to 1,0.1 to 1
N#Cc1ccc(N2CCC(c3cn(Cc4ccc(F)cc4)c4ccccc34)CC2)nc1 [Example 98],1 to 10,0.1 to 1,1 to 10,1 to 10
FC(F)(F)c1ccc(N2CCC(c3cn(Cc4ccc(Br)cc4)c4ccccc34)CC2)nc1 [Example 99],1 to 10,0.1 to 1,0.1 to 1,0.1 to 1
